Assay results: patent US9198915B2, “Methods involving aldose reductase inhibitors” (The Board of Regents of The University of Texas System, priority 2007, dated 2015)

Experiments:
Format in all cases: cell-based, human
[1] = test system: SAEC; assay: RW-induced apoptosis in SAEC (annexin V/PI flow cytometry); conditions: zopolrestat 20 μM, RW 150 μg/ml, 18 h
Method: Small Airway Epithelial cells (SAEC) obtained from Cambrex Bio Science Walkersville, Inc. (Walkersville, Md.) contains normal human SAEC from distal airspace of donor. The cells were cultured according to the supplier's instructions at 37° C. in humidified atmosphere containing 95% air and 5% CO2 in small airway epithelial basal medium (SABM) with supplements containing 52 μg/ml bovine pituitary extract, 0.5 ng/ml human recombinant epidermal growth factor (EGF), 0.5 μg/ml epinephrine, 1 μg/ml hydrocortisone, 10 μg/ml transferrin, 5 μg/ml insulin, 0.1 ng/ml retinoic acid (RA), 6.5 ng/ml triiodothyronine, 50 μg/ml Gentamicin/Amphotericin-B (GA-1000), and 50 μg/ml fatty acid-free bovine serum albumin (BSA).
Approximately 2×10^5 SAEC/well were plated in 6-well plates in triplicate for each group. After 24 hours, the medium was replaced with serum-free SABM with or without zopolrestat (20 μM). The cells were induced by RW (150 μg/mL) and incubated for 18 h. Apoptotic cell death was examined using the annexin V-FITC/PI, (molecular probes, Invitrogen) according to the manufacturer's instructions. Twenty thousand events were acquired for each sample and analyzed by flow cytometry using the LYSIS II software (FACScan, BD Pharmingen).

[2] = test system: IL-6, IL-8 and Cox-2 mRNA; assay: RW-induced IL-6, IL-8 and Cox-2 mRNA in SAEC (RT-PCR); conditions: RW 50 μg/ml, 6 h
Method: The SAECs were grown in 6-well plates at a density of approximately 3.0×10^5 cells/well. After approximately 80% confluence, cells were serum-starved in the presence or absence of sorbinil or zopolrestat (20 μM) for 24 h and then stimulated with 50 μg/ml RW for 6 h. Total RNA from SAECs was isolated by using RNeasy kit (Qiagen) as per supplier's instructions. Aliquots of RNA (0.5-1.0 μg) isolated from each sample were reverse transcribed with Omniscript and Sensiscript reverse transcriptase one-step RT-PCR system with HotStar Taq DNApolymerase (Qiagen) at 55° C. for 30 min followed by PCR amplification. The oligonucleotide primer sequences were as follows: 5′-ATGAACTCCT TCTCCACAAGCGC-3′ (SEQ ID NO:3) (sense) and 5′-[…]-3′ (SEQ TD NO:4) (antisense) for IL-6; 5′-[…]-3′ (SEQ ID NO:5) (sense) and 5′-TCT […]-3′ (SEQ ID NO:6) (antisense) for IL-8; 5 ‘-TGAAACCCACTCCA AACACAG-3’ (SEQ ID NO:7) (sense) and 5′-[…]-3′ (SEQ ID NO:8) (antisense) for Cox-2; and 5′-[…]-3′ (SEQ ID NO:9) (sense) and 5′-CGTC […]-3′ (SEQ ID NO:10) (antisense) for β-actin. PCR was carried out in a PCR Sprint thermal cycler (Thermo electron corporation, Milford, Mass.) under the following conditions: initial denaturation at 95° C. for 15 min followed by 35 cycles of 94° C. 1 min, 62° C. 1 min, 72° C. 1 min, and then 72° C. 10 min for final extension. […]

[3] = test system: Cox-2, iNOS, Bax, Bcl-xl, cyclin D1, E2F2; assay: TNF-α- and LPS-induced inflammatory, apoptosis and cell cycle proteins in SAEC (Western blotting); conditions: TNF-α 2 nM or LPS 1 μg/ml, 24 h
Method: The cells after incubations were lysed in RIPA lysis buffer, and forty micrograms of cytoplasmic proteins were resolved on 10% SDS-PAGE gel. After electrophoresis, the proteins were electro-transferred to a nitrocellulose membrane, blocked with 5% nonfat milk in TBST, and probed with antibodies against COX-2, NOS2, Bax, cyclin D1, E2F2 (1:1,000 dilution) for 2 hr. The blot was then washed, exposed to HRP-conjugated secondary antibodies (1:5,000 dilution) for 1 hr, and the antigen-antibody complex was detected by enhanced chemiluminescence (Amersham Pharmacia Biotech, Piscataway, N.J., USA).

[4] = test system: SAEC; assay: RW-induced ROS generation in SAEC (DHE); conditions: SAEC preincubated with AR inhibitor, RW 150 μg/mL
Method: Dihydroethidium (DHE, Molecular Probes) staining for superoxide was carried out as described previously. Briefly, Approximately 1×10^5 cells were seeded on chambered slides and starved in serum-free SABM with or without AR inhibitor for 24 h. The cells were treated with RW for 16 h. SAEC were rinsed with cold PBS and incubated in PBS containing HEt (2.5 mmol/L) at 37° C. for 15 minutes. Cells were rinsed in PBS and mounted with Vectashield Hard Set™ mounting medium with DAPI (Vector Laboratories Inc., Burlingame, Calif.). The image of ethidium staining was measured with a Nikon epifluorescence microscope with a 585 nm long-pass filter.

[5] = test system: SAEC; assay: TNF-α- and LPS-induced ROS generation in SAEC (DHE); conditions: TNF-α 2 nM or LPS 1 μg/mL, 16 h
Method: Dihydroethidium (DHE, Molecular Probes) staining for superoxide was carried out as described previously. Briefly, approximately 1×10^5 cells were seeded on chambered slides and starved in serum-free basal medium with AR inhibitor or carrier for 24 h. The cells were treated with TNF-α (2 nM) or LPS (1 μg/mL) or carrier for an additional 16 h. SAEC were rinsed with cold PBS and incubated in PBS containing HEt (2.5 μmol/L) at 37° C. for 15 min. Cells were rinsed in PBS and mounted with fluorsave mounting medium containing DAPI (Vector Laboratories Inc., Burlingame, Calif.). The image of ethidium staining was measured with a Nikon epifluorescence microscope with a 585 nm long-pass filter.

## O=C(O)Cc1nn(Cc2nc3cc(C(F)(F)F)ccc3s2)c(=O)c2ccccc12 [zopolrestat]
[1]
  prevention of RW-induced cell death: > 80%
[2]
  prevention of RW-induced increase of COX-2 mRNA levels: > 60%
  prevention of RW-induced increase of IL-6 and IL-8 mRNA levels: > 70%
[3]
  TNF-α- and LPS-induced increase of Cox-2 and iNOS protein expression: significantly prevented this increase
[4]
  RW-induced increase in cellular ROS levels: prevented these changes
[5]
  TNF-α- and LPS-induced increase in ROS levels: prevented these changes
